The supplement of paper PMC10307832

Assays:
Assay in all cases: relative viability (nuclei count vs DMSO), 5 days (fraction); higher = more cells survive
[1] = compound: CC1=CC=C(C=C1)C(=O)CN2C3=C(CCCC3)SC2=N [Pifithrin_alpha] + Nc1nc2[nH]cc(CCc3ccc(C(=O)N[C@@H](CCC(=O)O)C(=O)O)cc3)c2c(=O)[nH]1 [Pemetrexed] (partner 0.2 µM)
Method in brief: (§1)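 For relative viability, nuclei counts in treated wells were divided by those in vehicle wells. Lung cancer cell lines had been pin-tool dosed in 1536-well plates the day after seeding and cultured for 5 days, then fixed and stained in one step (final 0.05% Triton X-100, 1% formaldehyde, 1 ug/ml Hoechst) and imaged at 4×. Doses were one drug alone or a fixed anchor-drug dose plus five library-drug doses (not always all listed) in √10 steps, and values are duplicate-plate medians.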

[2] = compound: CNC(=O)c1ccccc1Sc1ccc2c(/C=C/c3ccccn3)n[nH]c2c1 [Axitinib] + CS(=O)(=O)N1CCN(Cc2cc3nc(-c4cccc5[nH]ncc45)nc(N4CCOCC4)c3s2)CC1 [Pictilisib] (partner 1 µM)
Method in brief: as §1

[3] = compound: CC1=CC=C(C=C1)C(=O)CN2C3=C(CCCC3)SC2=N [Pifithrin_alpha] + O=C(CCCCCCC(=O)Nc1ccccc1)NO [Vorinostat] (partner 1 µM)
Method in brief: as §1

[4] = compound: CC1=CC=C(C=C1)C(=O)CN2C3=C(CCCC3)SC2=N [Pifithrin_alpha] + COc1cccc2cc(-c3nc([C@H]4CC[C@H](C(=O)O)CC4)n4ncnc(N)c34)[nH]c12 [OSI-027] (partner 0.5 µM)
Method in brief: as §1

Cell Line | relative viability ([1]; first compound 1 µM) | relative viability ([1]; first compound 3.162 µM) | relative viability ([1]; first compound 10 µM) | relative viability ([1]; first compound 31.62 µM) | relative viability ([1]; first compound 100 µM) | relative viability ([2]; first compound 0.005 µM) | relative viability ([2]; first compound 0.01581 µM) | relative viability ([2]; first compound 0.05 µM) | relative viability ([2]; first compound 0.1581 µM) | relative viability ([2]; first compound 0.5 µM) | relative viability ([3]; first compound 1 µM) | relative viability ([3]; first compound 3.162 µM) | relative viability ([3]; first compound 10 µM) | relative viability ([3]; first compound 31.62 µM) | relative viability ([3]; first compound 100 µM) | relative viability ([4]; first compound 1 µM) | relative viability ([4]; first compound 3.162 µM) | relative viability ([4]; first compound 10 µM) | relative viability ([4]; first compound 31.62 µM) | relative viability ([4]; first compound 100 µM)
NCI-H838 | 0.194 | 0.242 | 0.272 | 0.235 | 0.287 | 0.461 | 0.37 | 0.551 | 0.594 | 0.607 | 0.593 | 0.591 | 0.555 | 0.567 | 0.525 | 0.381 | 0.35 | 0.349 | 0.263 | 0.258
NCI-H1355 | 0.977 | 0.972 | 0.764 | 0.686 | 0.677 | 0.41 | 0.514 | 0.606 | 0.432 | 0.308 | 0.606 | 0.483 | 0.429 | 0.376 | 0.479 | 0.336 | 0.329 | 0.323 | 0.307 | 0.309
NCI-H1395 | – | 0.897 | 0.907 | – | 0.908 | 0.612 | 0.559 | 0.634 | 0.528 | 0.684 | – | 0.662 | 0.723 | – | 0.661 | 0.541 | 0.629 | 0.617 | 0.432 | 0.643
NCI-H1437 | 0.337 | 0.313 | 0.309 | 0.258 | 0.253 | 0.437 | 0.399 | 0.459 | 0.418 | 0.402 | 0.78 | 0.619 | 0.565 | 0.468 | 0.356 | 1.06 | 0.903 | 0.905 | 0.65 | 0.41
NCI-H1650 | 0.358 | 0.366 | 0.341 | 0.331 | 0.392 | 0.624 | 0.36 | 0.644 | 0.529 | 0.585 | 0.527 | 0.596 | 0.332 | 0.382 | 0.373 | – | 0.532 | 0.43 | 0.494 | 0.411
NCI-H1651 | 0.211 | 0.632 | 0.553 | 0.539 | 0.666 | 0.631 | 0.503 | 0.665 | 0.576 | 0.567 | 0.148 | 0.553 | 0.476 | 0.533 | 0.563 | 0.682 | 0.664 | 0.666 | 0.449 | 0.6
NCI-H1666 | 0.876 | 0.784 | 0.767 | 0.617 | 0.714 | 0.414 | 0.459 | 0.433 | 0.512 | 0.584 | 0.96 | 0.962 | 0.723 | 0.771 | 0.793 | 0.789 | 0.771 | 0.651 | 0.642 | 0.585
NCI-H1734 | 0.452 | 0.434 | 0.428 | 0.367 | 0.358 | 0.462 | 0.432 | 0.493 | 0.439 | 0.436 | 0.715 | 0.776 | 0.773 | 0.537 | 0.75 | 0.58 | 0.633 | 0.585 | 0.482 | 0.491
